Assay results: ChEMBL document CHEMBL1201862, “PubChem BioAssay data set” (2004)
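Dose response: 5 concentrations. Exposure: 48 h. Format: 96-well plates. Endpoint: linear interpolation; highest concentration if not reached. Abbreviation: GI50, concentration required for 50% inhibition of growth.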 Calls of active or inactive are those of the source. Cut-off read from the data, not from the text of the source: active = GI50 up to about 1.1 µM and inactive = higher.

Columns and labels:
Experiment in all cases: NCI anticancer screen, dose series, 48 h
[1] = test system: RPMI-8226
[2] = test system: UACC-62
[3] = test system: PC-3
[4] = test system: Hs-578T
[5] = test system: HT-29
[6] = test system: SNB-19
[7] = test system: NCI-H226
[8] = test system: HL-60
[9] = test system: NCI-H23
[10] = test system: RXF 393
[11] = test system: UACC-257
[12] = test system: 786-0
[13] = test system: M14
[14] = test system: LOX IMVI
[15] = test system: SF-295
[16] = test system: OVCAR-3
[17] = test system: MCF7
[18] = test system: COLO 205
[19] = test system: CAKI-1
[20] = test system: SR

Measured: GI50

COC(=O)C1=C(C)NC(=S)NC1c1ccc(N(CCCl)CCCl)cc1Cl (stereo not given)
inactive: [1] 1.33 µM | [2] 3.05 µM | [3] 20.9 µM | [4] > 22 µM | [5] 32.5 µM | [6] 49 µM | [7] 3.56 µM | [8] 39.4 µM | [9] 5.45 µM | [10] > 34.9 µM | [11] 2.44 µM | [12] 51.3 µM | [13] 32.5 µM | [14] 24.8 µM | [15] 19.4 µM | [16] 22.6 µM | [17] 16.7 µM | [18] 25.3 µM | [19] 2 µM

CC1CNC(c2cccc(OCc3ccc(COc4cccc(C5=NC(C)CN5)c4)cc3)c2)=N1 (stereo not given)
inactive: [1] 15.6 µM | [2] 99.5 µM | [3] 28.9 µM | [4] 20.2 µM | [5] 25.4 µM | [6] 68.1 µM | [8] 23.2 µM | [9] 43.7 µM | [10] 40.7 µM | [11] 12.6 µM | [12] 34.1 µM | [13] > 100 µM | [14] 22 µM | [15] 66.8 µM | [16] 67.9 µM | [17] 28.2 µM | [18] 17 µM | [19] > 100 µM

O=P(O)(O)c1ccccc1Oc1ccccc1
inactive: [1] > 100 µM | [2] > 100 µM | [3] > 100 µM | [4] > 100 µM | [6] > 100 µM | [7] > 100 µM | [8] > 100 µM | [9] > 100 µM | [10] > 100 µM | [11] > 100 µM | [12] > 100 µM | [13] > 100 µM | [14] > 100 µM | [15] > 100 µM | [16] > 100 µM | [17] > 100 µM | [18] > 100 µM | [19] > 100 µM

C=CCN1CCC(OC(=O)C(O)(C#CC)C2CCCC2)CC1 (stereo not given)
inactive: [1] > 100 µM | [2] > 100 µM | [3] > 100 µM | [4] > 100 µM | [5] > 100 µM | [6] > 100 µM | [7] > 100 µM | [9] > 100 µM | [10] > 100 µM | [11] > 100 µM | [12] > 100 µM | [13] > 100 µM | [14] > 100 µM | [15] > 100 µM | [16] > 100 µM | [17] > 100 µM | [18] > 100 µM | [19] > 100 µM

Cc1cs/c(=N/c2ccccc2)n1CCC(O)(P(=O)(O)O)P(=O)(O)O
inactive: [2] > 100 µM | [3] > 100 µM | [4] > 100 µM | [5] > 100 µM | [6] > 100 µM | [7] > 100 µM | [9] > 100 µM | [10] > 100 µM | [11] > 100 µM | [12] > 100 µM | [13] > 100 µM | [14] > 100 µM | [15] > 100 µM | [16] > 100 µM | [17] > 100 µM | [18] > 100 µM | [19] > 100 µM

N#Cc1nc(C#N)n(C(=O)c2ccccc2)c1NC(=O)c1ccccc1
inactive: [1] > 100 µM | [2] > 100 µM | [3] > 100 µM | [4] > 100 µM | [5] > 100 µM | [6] > 100 µM | [7] > 100 µM | [8] > 100 µM | [9] > 100 µM | [10] > 100 µM | [11] > 100 µM | [12] > 100 µM | [13] > 100 µM | [14] > 100 µM | [15] > 100 µM | [16] > 100 µM | [17] > 100 µM | [18] > 100 µM | [19] > 100 µM

CCOC(=O)c1cc2cc(C)cc(C(=O)c3ccc([N+](=O)[O-])cc3)c2[nH]1
inactive: [1] > 100 µM | [2] > 100 µM | [3] > 100 µM | [4] 41.2 µM | [5] > 100 µM | [6] > 100 µM | [7] > 100 µM | [8] > 100 µM | [9] > 100 µM | [10] 37.7 µM | [11] > 100 µM | [12] 86.7 µM | [13] > 100 µM | [14] > 100 µM | [15] > 100 µM | [16] > 100 µM | [17] > 100 µM | [18] > 100 µM | [19] > 100 µM

O=S(=O)(/N=c1\[nH]c(-c2cc(O)c(O)c(O)c2)cs1)c1ccc(Cl)cc1Cl
inactive: [1] 19.4 µM | [2] > 100 µM | [3] 34.5 µM | [4] 20.1 µM | [5] 22.8 µM | [6] 31 µM | [7] 50.4 µM | [8] 41.8 µM | [9] 26.5 µM | [10] 25.5 µM | [11] 16 µM | [12] 19.7 µM | [13] 22.1 µM | [14] 12.8 µM | [15] 17.2 µM | [16] 17.4 µM | [17] 17.6 µM | [18] 22 µM | [19] 17.3 µM

CCCNC(=O)N1CC(CN2CCN(c3ccccc3)CC2)O/C1=N/C(=O)Nc1ccccc1 (stereo not given)
inactive: [1] > 100 µM | [2] 99.3 µM | [3] 45.5 µM | [4] > 100 µM | [5] 68.7 µM | [6] > 100 µM | [7] 2.09 µM | [8] 3.83 µM | [9] 73.8 µM | [10] 43.3 µM | [11] 46.8 µM | [12] > 100 µM | [13] 65.9 µM | [14] 67.8 µM | [15] > 100 µM | [17] > 100 µM | [18] 33.3 µM | [19] > 100 µM

CCOC(=O)[C@@H]1[C@@H](c2ccccc2)N(C)O[C@@]1(c1ccccc1)C(F)(F)F
inactive: [1] 20.7 µM | [2] 43.5 µM | [3] 58.5 µM | [4] > 100 µM | [5] 18.7 µM | [6] > 100 µM | [7] 23.1 µM | [9] 59.6 µM | [10] 40.2 µM | [11] 55 µM | [12] > 100 µM | [13] 31 µM | [14] 70.5 µM | [15] 64.6 µM | [16] 97.1 µM | [18] > 100 µM | [19] > 100 µM

Cc1ccc(N2CCC3(CC2)OCCO3)cc1
inactive: [1] > 100 µM | [2] > 100 µM | [3] > 100 µM | [20] > 100 µM | [4] > 100 µM | [5] > 100 µM | [6] > 100 µM | [7] > 100 µM | [8] > 100 µM | [9] > 100 µM | [10] > 100 µM | [11] > 100 µM | [12] > 100 µM | [13] > 100 µM | [15] > 100 µM | [16] > 100 µM | [18] > 100 µM | [19] > 100 µM
